Reference: patent EP4038084B1, “LIPOPEPTIDES, PHARMACEUTICAL COMPOSITION, COSMETIC COMPOSITION, AND LIPOPEPTIDES FOR USE AS A DRUG” (priority 2019, dated 2021)
≈ marks a conversion by molar mass, not a printed value. Entries after “also recorded” stand apart in the source; their conditions may differ. Where a SMILES comes first, the peptide text is derived from it. [ ]: non-standard residue; d: D form. The star is where a group is joined. Palmitoyl = CCCCCCCCCCCCCCCC(=O)*; Myristoyl = CCCCCCCCCCCCCC(=O)*; Lauroyl = CCCCCCCCCCCC(=O)*; Dab = NCC[C@H](N)C(=O)O

How the values were obtained:
[1] = test system: Yersinia enterocolitica PCM 2081; conditions: LB medium, 24 h at 30°C, OD 600 nm not greater than 0.05
From the text: All bacterial strains were obtained from the Polish Collection of Microorganisms (PCM) or the American Type Culture Collection (ATCC). Gram-positive bacteria strains: Staphylococcus aureus ATCC 29213, Staphylococcus epidermidis ATCC 12228, and Enterococcus faecalis ATCC 14506. Gram-negative bacteria strains: Escherichia coli ST2-8624 O157:H7, Pseudomonas aeruginosa PAO1 PCM 499, Klebsiella pneumoniae PCM 1, Salmonella sv. Typhimurium TT622, and Yersinia enterocolitica PCM 2081. All strains were cultured in LB (lysogenic broth) medium.
10 mL of LB medium was inoculated with material from a single colony and cultured at 30°C overnight with shaking. Thereafter, the optical density of the overnight cultures (at 600 nm) was adjusted to 0.05 by dilution in a fresh portion of LB medium. The test compounds were dissolved in water. Serial dilutions of compounds were prepared in LB medium ranging from 5 to 50 µg/mL (final concentrations). The experiment was performed by adding 100 µL of each of the prepared dilutions to 100 µL of the diluted overnight bacterial culture in the wells of a 96-well titration plate. […] Optical density measurements were performed using TECAN Sunrise plate reader. Data were obtained from three independent experiments.

[2] = test system: Pseudomonas aeruginosa PAO1 PCM 499; assay type: cell-based; conditions: LB medium, 24 h at 30°C, OD 600 nm not greater than 0.05
Experimental: (§1) Typhimurium TT622, and Yersinia enterocolitica PCM 2081. All strains were cultured in LB (lysogenic broth) medium.
(§2) The test compounds were dissolved in water. […] Data were obtained from three independent experiments.

[3] = test system: Enterococcus faecalis ATCC 14506; assay type: cell-based; conditions: LB medium, 24 h at 30°C, OD 600 nm not greater than 0.05
Experimental: as §1, §2

[4] = test system: Klebsiella pneumoniae PCM 1; assay type: cell-based; conditions: LB medium, 24 h at 30°C, OD 600 nm not greater than 0.05
Experimental: as §1, §2

[5] = test system: Escherichia coli ST2-8624 O157:H7; assay type: cell-based; conditions: LB medium, 24 h at 30°C, OD 600 nm not greater than 0.05
Experimental: as §1, §2

[6] = test system: Salmonella sv. Typhimurium TT622; assay: Determination of the minimal inhibitory concentration (MIC); assay type: cell-based; conditions: LB medium, 24 h at 30°C, OD 600 nm not greater than 0.05
Experimental: as §1, §2

[7] = test system: Pseudomonas aeruginosa PAO1 PCM 499; assay: Lipopeptide effect on the bacterial growth dynamics; assay type: cell-based; conditions: OD 600 nm every 60 min for 6 h after 2 h pre-incubation
Experimental: as §1
(§3) The effect of different concentrations of the test compounds on the bacterial growth was tested on 3 Gram-negative bacterial strains: Klebsiella pneumoniae PCM 1, Pseudomonas aeruginosa PAO1 PCM 499, and Yersinia enterocolitica PCM 2081 and one Gram-positive strain: Staphylococcus aureus ATCC 29213. The experiment was carried out in a similar way to the MIC determination, but in this case the diluted overnight cultures were pre-incubated for 2 h before adding diluted lipopeptide preparations. The bacterial growth was then monitored by measuring the optical density of the culture at 600 nm every 60 min for 6 h. Data were obtained from three independent experiments. The measurement results are shown as graphs in Figs. 1-3.

[8] = test system: Yersinia enterocolitica PCM 2081; assay: as above; assay type: cell-based; conditions: OD 600 nm every 60 min for 6 h after 2 h pre-incubation
Experimental: as §1, §3

[9] = test system: Klebsiella pneumoniae PCM 1; assay: as above; assay type: cell-based; conditions: OD 600 nm every 60 min for 6 h after 2 h pre-incubation
Experimental: as §1, §3

[10] = test system: Staphylococcus epidermidis ATCC 12228; conditions: LB medium, 24 h at 30°C, OD 600 nm not greater than 0.05
[11] = test system: Staphylococcus aureus ATCC 29213; conditions: LB medium, 24 h at 30°C, OD 600 nm not greater than 0.05
Sheep red blood cells = assay type: cell-based
Experimental: (§4) Defibrinated sheep or horse blood was washed three times in PBS buffer (137 mM NaCl, 2.7 mM KCl, 8 mM Na2HPO4, 2 mM KH2PO4, pH 7.4) and diluted to obtain 2% (v/v) preparation of red blood cells (RBC). […] The experiment was performed by adding 190 µL of 2% RBC preparation to 10 µL of each of the prepared lipopeptide dilutions in the wells of a 96-well titer plate. As a positive control, Triton X-100 (2% final concentration) was used, instead of test compound preparations, and PBS buffer was used as a negative control. The samples were then incubated for 30 min at 30°C with shaking. After this time, the plate was centrifuged (1200 rpm) and 150 µL of the supernatant was transferred per well to another titration plate and the absorbance at 415 nm was measured using TECAN Sunrise plate reader. Based on the obtained results, the concentration of lipopeptides was determined at which up to 50% of hemolysis occurs in comparison with the positive control (HC50). Data were obtained from three independent experiments. The measurement results are shown in Table 3 and in the form of graphs in Figs. 7 and 8.

Horse red blood cells = assay type: cell-based
Experimental: as §4

| SMILES | MIC [1] [µg/mL] | MIC [2] | MIC [3] | MIC [4] | MIC [5] | MIC [6] | effect on the bacterial growth dynamics [7] | effect on the bacterial growth dynamics [8] | effect on the bacterial growth dynamics [9] | MIC [10] [µg/mL] | MIC [11] [µg/mL] | HC50 (Sheep red blood cells) [µg/mL < HC50< 40 µg/mL] | HC50 (Horse red blood cells) [µg/mL < HC50< 40 µg/mL] |
| --- | --- | --- | --- | --- | --- | --- | --- | --- | --- | --- | --- | --- | --- |
| CCCCCCCCCCCC(=O)N[C@H](Cc1ccccc1)C(=O)N[C@@H](CCN)C(=O)N[C@@H](CCN)C(=O)N[C@@H](CC(C)C)C(N)=O [C12-fXXL, CH3(CH2)10C(O)-D-Phe-Dab-Dab-Leu-NH2] (Lauroyl-[dF][Dab][Dab]L-NH2) | 20 (≈ 30.3 µM) | 20 µg/mL (≈ 30.3 µM) | 30 µg/mL (≈ 45.5 µM) | 20 µg/mL (≈ 30.3 µM) | 50 µg/mL (≈ 75.8 µM) | n.d. (n.d. = not determined, i.e., the MIC value was greater than 50 µg/mL) | slowed down the bacterial growth dynamics at much lower concentrations than that of the C16-fXXL lipopeptide | slowed down the bacterial growth dynamics at much lower concentrations than that of the C16-fXXL lipopeptide | slowed down the bacterial growth dynamics at much lower concentrations than that of the C16-fXXL lipopeptide | 5 (≈ 7.58 µM) | 5 (≈ 7.58 µM) | 30 | 30 |
| CCCCCCCCCCCCCC(=O)N[C@H](Cc1ccccc1)C(=O)N[C@@H](CCN)C(=O)N[C@@H](CCN)C(=O)N[C@@H](CC(C)C)C(N)=O [C14-fXXL, CH3(CH2)12C(O)-D-Phe-Dab-Dab-Leu-NH2] (Myristoyl-[dF][Dab][Dab]L-NH2) | 10 (≈ 14.5 µM) | 20 µg/mL (≈ 29.1 µM) | 30 µg/mL (≈ 43.6 µM) | 20 µg/mL (≈ 29.1 µM) | n.d. (n.d. = not determined, i.e., the MIC value was greater than 50 µg/mL) | n.d. (n.d. = not determined, i.e., the MIC value was greater than 50 µg/mL) | equally strong effect of slowing down the Gram-negative bacterial growth dynamics; also recorded: slowed down the bacterial growth dynamics at much lower concentrations than that of the C16-fXXL lipopeptide | slowed down the bacterial growth dynamics at much lower concentrations than that of the C16-fXXL lipopeptide | slowed down the bacterial growth dynamics at much lower concentrations than that of the C16-fXXL lipopeptide | 5 (≈ 7.27 µM) | 5 (≈ 7.27 µM) | 30 | 30 |
| CCCCCCCCCCCCCCCC(=O)N[C@H](Cc1ccccc1)C(=O)N[C@@H](CCN)C(=O)N[C@@H](CCN)C(=O)N[C@@H](CC(C)C)C(N)=O [C16-fXXL, CH3(CH2)14C(O)-D-Phe-Dab-Dab-Leu-NH2, reference compound] (Palmitoyl-[dF][Dab][Dab]L-NH2) | 30 (≈ 41.9 µM) | n.d. (n.d. = not determined, i.e., the MIC value was greater than 50 µg/mL) | n.d. (n.d. = not determined, i.e., the MIC value was greater than 50 µg/mL) | n.d. (n.d. = not determined, i.e., the MIC value was greater than 50 µg/mL) | no activity | n.d. (n.d. = not determined, i.e., the MIC value was greater than 50 µg/mL) | – | – | – | 5 (≈ 6.98 µM) | 5 (≈ 6.98 µM) | 30 | 30 |
